For ten compounds, TGI results are on record in PubChem BioAssay (NCI).

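Grown in 96-well plates, cells were treated for 48 hours with each compound at five concentrations. Insufficient inhibition: endpoint recorded as highest concentration tested. TGI is the concentration that stops growth completely.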

Among the test systems are A549 NSCLC; CAKI-1 renal; HCT-116 colon; HCT-15 colon; HOP-92 NSCLC; NCI-H226 lung; NCI-H23 lung; OVCAR-8 ovarian; RPMI-8226 leukemia; SF-268 CNS; SF-295 CNS; SN12C renal; U251 CNS; UACC-257 melanoma; UACC-62 melanoma.
What all share (assay): NCI tumour cell line growth inhibition, 48 h

In the case of `O=C(NN1C(=O)CS(=O)(=O)C1c1ccc(Cl)c(Cl)c1)c1ccncc1` (stereo not drawn), the TGI in the test on A549 NSCLC, in the test with CAKI-1 renal, in the test on HCT-116 colon, in the test with HCT-15 colon, in the test on HOP-92 NSCLC and with NCI-H226 lung was more than 100 µM in each case. Besides, the TGI is more than 100 µM in the test with NCI-H23 lung; more than 100 µM in the test with OVCAR-8 ovarian; more than 71.5 µM with RPMI-8226 leukemia; more than 100 µM in the test on SF-268 CNS; more than 100 µM with SF-295 CNS; more than 100 µM in the test on SN12C renal. Also, the TGI in the test on U251 CNS, in the test on UACC-257 melanoma and with UACC-62 melanoma was more than 100 µM in each case.
For `COCn1cc(C2=C(C)C(=O)C(C)=C(C)C2=O)cn1`, the TGI with A549 NSCLC was more than 100 µM; with CAKI-1 renal, more than 100 µM; in the test on HCT-116 colon it was 36.7 µM; in the test on HCT-15 colon, more than 100 µM; with HOP-92 NSCLC it was 37.5 µM; with NCI-H226 lung it was more than 100 µM. Further, the TGI in the test on NCI-H23 lung was more than 100 µM; in the test on OVCAR-8 ovarian, 36.8 µM; with RPMI-8226 leukemia it was 60.2 µM; with SF-268 CNS it was 66 µM; with SF-295 CNS, more than 100 µM; with SN12C renal, more than 100 µM. In addition, the TGI with UACC-257 melanoma and in the test on UACC-62 melanoma was more than 100 µM throughout.
Take `Cn1c(=O)c2ccccc2[n+]2c(-c3cccc([N+](=O)[O-])c3)csc12`: the TGI in the test on A549 NSCLC, in the test on CAKI-1 renal, in the test with HCT-116 colon, with HOP-92 NSCLC, in the test on NCI-H226 lung and in the test with NCI-H23 lung was more than 100 µM throughout. Further, the TGI in the test with OVCAR-8 ovarian, with RPMI-8226 leukemia, in the test on SF-268 CNS, in the test with SF-295 CNS, in the test with SN12C renal and in the test on U251 CNS was more than 100 µM throughout. For the same compound, the TGI in the test on UACC-257 melanoma and in the test on UACC-62 melanoma was more than 100 µM in each case.
As for `O[C@@]1(C#Cc2ccc3c(c2)OCO3)CCC[C@H]1NCc1ccccc1`, the TGI in the test with A549 NSCLC is more than 100 µM; with CAKI-1 renal, more than 100 µM; in the test on HCT-15 colon, 47.3 µM; in the test with HOP-92 NSCLC, 38 µM; in the test on NCI-H226 lung, 51.2 µM; with NCI-H23 lung, more than 100 µM. For the same compound, the TGI with OVCAR-8 ovarian is 59 µM; with RPMI-8226 leukemia, 56 µM; in the test on SF-268 CNS it was more than 100 µM; in the test with SF-295 CNS, 40.3 µM; in the test with U251 CNS, 59.6 µM; with UACC-257 melanoma, 63.9 µM. Moreover, the TGI with UACC-62 melanoma worked out at 36.4 µM.
On to `N=c1oc2ccccc2cc1C(=O)Nc1cccc2ccccc12`, for which the TGI in the test with A549 NSCLC, in the test on CAKI-1 renal, in the test on HCT-116 colon, with HCT-15 colon, with HOP-92 NSCLC and with NCI-H226 lung was more than 100 µM each time. For the same compound, the TGI with NCI-H23 lung, in the test with OVCAR-8 ovarian, with RPMI-8226 leukemia, with SF-268 CNS, in the test with SN12C renal and in the test with U251 CNS was more than 100 µM in each case. Besides, the TGI in the test on UACC-257 melanoma and in the test with UACC-62 melanoma was more than 100 µM each time.
As for `CC(Br)CN1CCOCC1` (stereo not drawn), the TGI with A549 NSCLC, in the test with CAKI-1 renal, in the test with HCT-116 colon, in the test with HCT-15 colon, with HOP-92 NSCLC and in the test on NCI-H226 lung was more than 100 µM in each case. Further, the TGI with NCI-H23 lung, with OVCAR-8 ovarian, in the test on RPMI-8226 leukemia, with SF-268 CNS, with SN12C renal and in the test with U251 CNS was more than 100 µM in each case. Also, the TGI with UACC-257 melanoma and in the test on UACC-62 melanoma was more than 100 µM in each case.
On to `NS(=O)(=O)c1nnc(NS(=O)(=O)c2ccccc2[N+](=O)[O-])s1`, for which the TGI in the test on A549 NSCLC, in the test on CAKI-1 renal, in the test with HCT-116 colon, with HCT-15 colon, with HOP-92 NSCLC and in the test on NCI-H226 lung was more than 100 µM each time. The TGI in the test with NCI-H23 lung, in the test with RPMI-8226 leukemia, in the test with SF-268 CNS, in the test with SF-295 CNS, in the test on U251 CNS and with UACC-62 melanoma was more than 100 µM throughout.
As to `COc1ccc(N2C(=O)C(Cl)C2c2cc3cc(Br)ccc3nc2Cl)cc1` (stereo not drawn), the TGI in the test with A549 NSCLC is more than 25 µM; with CAKI-1 renal, 18.9 µM; in the test on HCT-116 colon, 9.51 µM; in the test on HCT-15 colon, 11 µM; in the test with HOP-92 NSCLC, 18.3 µM; with NCI-H226 lung it was 13.2 µM. Moreover, the TGI in the test with NCI-H23 lung is 15.6 µM; in the test with OVCAR-8 ovarian, more than 25 µM; with RPMI-8226 leukemia, 21.6 µM; with SF-268 CNS it was 19 µM; in the test on SF-295 CNS it was more than 25 µM; in the test with SN12C renal it was 12.3 µM. The results for the TGI in the test with UACC-257 melanoma and in the test on UACC-62 melanoma were 11.9 µM and 8.86 µM, respectively.
`C=C1CC(OC)(C(OC)C(=O)N[C@H]2OCO[C@H]3C2O[C@H](C[C@@H](COC)OC)C(C)(C)C3OC)O[C@H](C)[C@@H]1C` (stereo partly drawn): the TGI in the test with A549 NSCLC amounted to 5.24 µM; with CAKI-1 renal, 3.6 µM; in the test with HCT-116 colon it was 5.77 µM; with HCT-15 colon it was 8.25 µM; with HOP-92 NSCLC it was 4.76 µM; with NCI-H226 lung it was 7.73 µM. Further, the TGI with NCI-H23 lung was 6.68 µM; in the test on OVCAR-8 ovarian it was 6.89 µM; with RPMI-8226 leukemia, 0.917 µM; in the test on SF-295 CNS it was 3.28 µM; with SN12C renal, more than 47 µM; in the test with U251 CNS, 4.13 µM. Also, the TGI with UACC-257 melanoma came out at 14.7 µM; in the test on UACC-62 melanoma, 3.72 µM.
Consider `O=c1[nH]c(=O)c2c([nH]1)[nH]c1ccc(Br)cc12`, for which the TGI in the test on A549 NSCLC, in the test with CAKI-1 renal, with HCT-116 colon, with HCT-15 colon, with HOP-92 NSCLC and in the test on NCI-H226 lung was more than 100 µM each time. Also, the TGI in the test on NCI-H23 lung, in the test with OVCAR-8 ovarian, in the test with RPMI-8226 leukemia, in the test on SF-268 CNS, in the test with SF-295 CNS and in the test with SN12C renal was more than 100 µM throughout. For the same compound, the TGI in the test with UACC-257 melanoma and in the test with UACC-62 melanoma was more than 100 µM each time.
